From patent US5026708A, “Pyrimidine type mevalonolactones” (Nissan Chemical Industries Ltd., priority 1987, dated 1991)
Structures can show the parent of a compound that is named as a salt. Where two headings read alike, the source gives them in different places.

Assays:
[1] = system: cholesterol biosynthesis in which HMG-CoA reductase serves as a rate limiting enzyme (rat liver microsome and sup fraction); test: Test A: Inhibition of cholesterol biosynthesis from acetate in vitro; assay type: biochemical, male Wistar rat; details: for Relative activities by Test A: based on the activities of CS-514 by Test A being evaluated to be 1; for IC50: Test A, rat liver microsome and sup fraction, [2-14C]sodium acetate, 2 hours at 37° C., read-out: IC50 (molar concentration), inhibitory activities by Test A
Protocol: Enzyme solution was prepared from liver of male Wistar rat billialy connulated and discharged bile for over 24 hours. Liver was cut out at mid-dark and microsome and supernatant fraction which was precipitable with 40-80% of saturation of ammonium sulfate (sup fraction) were prepared from liver homogenate according to the modified merhod of Knauss et. al.; Kuroda, M., et. al., Biochim. Biophys. Acta, 489, 119 (1977). For assay of cholesterol biosynthesis, microsome (0.1 mg protein) and sup fraction (1.0 mg protein) were incubated for 2 hours at 37° C. in 200 μl of the reaction mixture containing ATP; 1 mM, Glutathione; 6 mM, Glucose-1-phosphate; 10 mM, NAD; 0.25 mM, NADP; 0.25 mM, CoA; 0.04 mM and 0.2 mM [2-^14 C]sodium acetate (0.2 μCi) with 4 μl of test compound solution dissolved in water or dimethyl sulfoxide. To stop reaction and saponify, 1 ml of 15% EtOH-KOH was added to the reactions and heated at 75° C. for 1 hour. Nonsaponifiable lipids were extracted with petroleum ether and incorporated ^14 C radioactivity was counted. Inhibitory activity of compounds was indicated with IC50.
(§1) With respect to the compounds of the present invention, the inhibitory activities against the cholesterol biosynthesis in which HMG-CoA reductase serves as a rate limiting enzyme, were measured by the above Test A and B. The results are shown in Tables 2, 2-2 and 3. Further, the results of the measurements by Test C are also presented.

[2] = system: cholesterol biosynthesis in Hep G2 cells; test: Test B: Inhibition of cholesterol biosynthesis in culture cells; assay type: cell-based; details: acetate added at 0 hr; for Relative activities by Test B-1: based on the activities of CS-514 by Test B-1 being evaluated to be 1
Protocol: Hep G2 cells at over 5th passage were seeded to 12 well plates and incubated with Dulbecco's modified Eagle (DME) medium containing 10% of fetal bovine serum (FBS) at 37° C., 5% CO2 until cells were confluent for about 7 days. Cells were exposed to the DME medium containing 5% of lipoprotein deficient serum (LpDS) prepared by ultracentrifugation method for over 24 hours. Medium was changed to 0.5 ml of fresh 5% LpDS containing DME before assay and 10 μl of test compound solution dissolved in water or DMSO were added. 0.2 μCi of [2-^14 C]sodium acetate (20 μl ) was added at 0 hr(B-1) or 4 hrs(B-2) after addition of compounds. After 4 hrs further incubation with [2-^14 C]sodium acetate, medium was removed and cells were washed with phosphate buffered saline(PBS) chilled at 4° C. Cells were scraped with rubber policeman and collected to tubes with PBS and digested with 0.2 ml of 0.5 N KOH at 37° C. Aliquot of digestion was used for protein analysis and remaining was saponified with 1 ml of 15% EtOH-KOH at 75° C. for 1 hour. Nonsaponifiable lipids were extracted with petroleum ether and ^14 C radioactivity was counted. Counts were revised by cell protein and indicated with DPM/mg protein. Inhibitory activity of compounds was indicated with IC50.
as §1

cholesterol biosynthesis = test: Test C: Inhibition of cholesterol biosynthesis in vivo; design: species or system Male Sprague-Dawley rats; details: rats
Protocol: Male Sprague-Dawley rats weighing about 150 g were fed normal Purina chow diet and water ad libitum, and exposed to 12 hours light/12 hours dark lighting pattern (2:00 PM-2:00 AM dark) prior to use for in vivo inhibition test of cholesterol biosynthesis. Animals were separated groups consisting of five rats as to be average mean body weight in each groups. […] As control, rats were orally administered only water or vehicle. At 90 minutes after sample administration, rats were injected intraperitoneally with 10 μCi of [2-^14 C]sodium acetate at volume of 0.2 ml per one. 2 Hours later, blood samples were obtained and serum were separated immediately. Total lipids were extracted according to the method of Folch et al. and saponified with EtOH-KOH. Nonsaponifiable lipids were extracted with petroleum ether and radio activity incorporated into nonsaponifiable lipids was counted.
Inhibitory activity was indicated as percent decrease of counts in testing groups (DPM/2 ml serum/2 hours) from that in control group.

Test D: Acute toxicity = test: Test D: Acute toxicity; design: species or system ICR male mice; details: mouse, in vivo, oral, 0.5% CMC suspension, read-out: mortality after seven days
Protocol: A 0.5% CMC suspension of a test compound was orally administered to ICR male mice (group of from one to three mice). The acute toxicity was determined based on the mortality after seven days. With compound I-5-8 and I-5-11 of the present invention, the mortality was 0% even when they were orally administered in an amount of 824 mg/kg and 982 mg/kg, respectively.

SMILES	Relative activities by Test A [1]	Relative activities by Test B-1 [2]	also measured
CC(C)c1nc(-c2ccccc2)nc(-c2ccc(F)cc2)c1/C=C/[C@@H]1C[C@@H](O)CC(=O)O1 (relative stereo) [Compound I-3-8, (E)-6-[4'-(4''-fluorophenyl)-6'-(1''-methylethyl)-2'-phenylpyrimidin-5 '-ylethenyl]-4-hydroxy-3,4,5,6-tetrahydro-2H-pyran-2-one]	5.2	–	–
CC[C@H](C)C(=O)O[C@H]1C[C@H](O)C=C2C=C[C@H](C)[C@H](CC[C@@H](O)C[C@@H](O)CC(=O)O)[C@H]21 [CS-514, reference compound]	–	–	IC50 ([2]; Homo sapiens, HepG2, Test B-1, Hep G2 cells, read-out: IC50 (molar concentration), Test B-1): 1400 nM; IC50 [1]: 12.5 nM; percent decrease of counts relative to control group (cholesterol biosynthesis; oral administration of 10 mg/kg): 55%
CCOC(=O)CC(O)CC(O)/C=C/c1c(-c2ccc(F)cc2)nc(Cc2ccccc2)nc1C1CC1 (centres unmarked) [Compound I-1-12]	–	41.3	–
CCOC(=O)CC(O)CC(O)/C=C/c1c(-c2ccc(F)cc2)nc(-c2cccc(Cl)c2)nc1C1CC1 (centres unmarked) [Compound I-1-13]	–	41.6	–
CCOC(=O)CC(O)CC(O)/C=C/c1c(-c2ccc(F)cc2)nc(-c2ccc(OC)cc2)nc1C1CC1 (centres unmarked) [Compound I-1-14]	–	72.5	–
Cc1nc(-c2ccccc2)nc(-c2ccc(F)cc2)c1/C=C/C(O)CC(O)CC(=O)O (centres unmarked) [Compound I-5-1, Sodium salt of (E)-3,5-dihydroxy-7-[4'-(4''-fluorophenyl)-6'methyl-2 2'-phenylpyrimidin-5'-yl]hept-6-enoic acid]	–	–	IC50 [1]: 18 nM
Cc1nc(C)c(/C=C/C(O)CC(O)CC(=O)O)c(-c2ccccc2)n1 (centres unmarked) [Compound I-5-2]	–	–	IC50 [1]: 5000 nM
Cc1nc(-c2ccccc2)nc(-c2ccccc2)c1/C=C/C(O)CC(O)CC(=O)O (centres unmarked) [Compound I-5-3]	–	–	IC50 [1]: 100 nM
CC(C)c1nc(-c2ccccc2)nc(-c2ccc(F)cc2)c1/C=C/C(O)CC(O)CC(=O)O (centres unmarked) [Compound I-5-8]	4.6	36.1	mortality at 168 h (Test D: Acute toxicity; 824 mg/kg): 0%
O=C(O)CC(O)CC(O)/C=C/c1c(-c2ccc(F)cc2)nc(-c2ccccc2)nc1C1CC1 (centres unmarked) [Compound I-5-11]	15.9	28.4	mortality at 168 h (Test D: Acute toxicity; 982 mg/kg): 0%
CC[C@H](C)C(=O)O[C@H]1C[C@@H](C)C=C2C=C[C@H](C)[C@H](CC[C@@H]3C[C@@H](O)CC(=O)O3)[C@H]21 [Mevinolin, reference compound]	–	–	IC50 [1]: 14 nM

Continued, in another order:

Relative activities by Test A [1]	SMILES	Relative activities by Test B-1 [2]	also measured
14.8	O=C(O)CC(O)CC(O)/C=C/c1c(-c2ccc(F)cc2)nc(Cc2ccccc2)nc1C1CC1 (centres unmarked) [Compound I-5-12]	46.3	–
15.9	O=C(O)CC(O)CC(O)/C=C/c1c(-c2ccc(F)cc2)nc(-c2cccc(Cl)c2)nc1C1CC1 (centres unmarked) [Compound I-5-13]	–	–
16.1	COc1ccc(-c2nc(-c3ccc(F)cc3)c(/C=C/C(O)CC(O)CC(=O)O)c(C3CC3)n2)cc1 (centres unmarked) [Compound I-5-14]	–	–
14.5	Cc1ccc(-c2nc(-c3ccc(F)cc3)c(/C=C/C(O)CC(O)CC(=O)O)c(C3CC3)n2)cc1 (centres unmarked) [Compound I-5-15]	58.5	percent decrease of counts relative to control group (cholesterol biosynthesis; oral administration of 0.5 mg/kg): 35%
1.9	O=C(O)CC(O)CC(O)/C=C/c1c(-c2ccc(F)cc2)nc(-c2ccc(-c3ccccc3)cc2)nc1C1CC1 (centres unmarked) [Compound I-5-16]	–	–
12.2	O=C(O)CC(O)CC(O)/C=C/c1c(-c2ccc(F)cc2)nc(-c2cccc(C(F)(F)F)c2)nc1C1CC1 (centres unmarked) [Compound I-5-17]	–	–
